By IC50 is commonly meant the concentration that inhibits the measured activity by half.

This note sets out measurements from US10246469B2, “Biaryl kinase inhibitors” (BRISTOL-MYERS SQUIBB COMPANY, priority 2015, dated 2019).

The experiment concerns the target T1, GST-Xa-hAAK1 (Homo sapiens, UniProt Q2M2I8).
T1 construct: GST (N); Factor Xa cleavage site (Xa) (internal); made in house
As to the kind of experiment: AAK1 Kinase Assay. The class given is biochemical. The settings on record: bacterially expressed GST-Xa-hAAK1 3.5 nM; ATP 22 μM; fluoresceinated peptide 1.5 μM; 3 hours at room temperature; Caliper LabChip 3000. As to the method:
The assays were performed in U-bottom 384-well plates. The final assay volume was 30 μl prepared from 15 μl additions of enzyme and substrates (fluoresceinated peptide (5-FAM)-Aha-[…]-NH2 and ATP) and test compounds in assay buffer (10 mM Tris-HCL pH 7.4, 10 mM MgCl2, 0.01% Tween-20 and 1.0 mM DTT). The reactions were initiated by the combination of bacterially expressed, GST-Xa-hAAK1 with substrates and test compounds. The reactions were incubated at room temperature for 3 hours and terminated by adding 60 μl of 35 mM EDTA buffer to each sample. The reactions were analyzed on the Caliper LabChip 3000 (Caliper, Hopkinton, Mass.) by electrophoretic separation of the fluorescent substrate and phosphorylated product. […] The final concentration of reagents in the assays are ATP, 22 μM; (5-FAM)-Aha-[…]-NH2, 1.5 μM; GST-Xa-hAAK1, 3.5 nM; and DMSO, 1.6%. […] Compounds were dissolved at 10 mM in dimethylsulfoxide (DMSO) and evaluated at eleven concentrations. IC50 values were derived by non-linear regression analysis.

T1 sequence (Q2M2I8 whole entry): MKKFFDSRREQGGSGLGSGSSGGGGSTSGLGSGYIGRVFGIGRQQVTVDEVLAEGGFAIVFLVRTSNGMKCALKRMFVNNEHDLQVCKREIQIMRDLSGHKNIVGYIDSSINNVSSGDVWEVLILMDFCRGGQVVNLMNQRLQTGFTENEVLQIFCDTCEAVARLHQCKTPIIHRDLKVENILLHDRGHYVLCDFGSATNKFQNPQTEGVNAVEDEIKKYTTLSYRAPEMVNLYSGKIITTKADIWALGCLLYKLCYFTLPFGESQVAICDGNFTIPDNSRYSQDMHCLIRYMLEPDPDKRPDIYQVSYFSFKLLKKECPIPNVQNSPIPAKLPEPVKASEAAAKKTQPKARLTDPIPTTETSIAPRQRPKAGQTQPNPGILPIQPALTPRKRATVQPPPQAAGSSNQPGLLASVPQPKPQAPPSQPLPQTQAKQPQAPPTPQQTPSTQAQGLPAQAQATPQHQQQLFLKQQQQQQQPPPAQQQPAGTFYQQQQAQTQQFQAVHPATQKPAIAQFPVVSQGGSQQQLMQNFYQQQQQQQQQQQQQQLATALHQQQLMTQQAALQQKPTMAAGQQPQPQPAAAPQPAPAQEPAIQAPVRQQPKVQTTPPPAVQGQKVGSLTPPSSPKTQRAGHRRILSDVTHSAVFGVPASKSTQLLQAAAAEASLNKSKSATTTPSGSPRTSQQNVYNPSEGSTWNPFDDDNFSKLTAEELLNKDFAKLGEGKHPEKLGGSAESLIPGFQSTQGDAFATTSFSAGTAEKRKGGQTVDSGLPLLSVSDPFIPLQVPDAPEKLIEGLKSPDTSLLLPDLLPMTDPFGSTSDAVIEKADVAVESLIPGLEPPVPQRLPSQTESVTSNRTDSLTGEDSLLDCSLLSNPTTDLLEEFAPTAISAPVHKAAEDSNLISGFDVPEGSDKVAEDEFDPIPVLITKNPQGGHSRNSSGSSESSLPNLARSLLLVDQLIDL

`CC(C)C[C@](C)(N)COc1ccc(-c2ccnn3ccnc23)cc1C#N` [Example 287, (S)-2-((2-amino-2,4-dimethylpentyl)oxy)-5-(imidazo[1,2-b]pyridazin-8-yl)benzonitrile]: the IC50 was 0.5 nM.
The figure for `CC(C)C[C@](C)(N)COc1ccc(-c2ccnc3[nH]ncc23)cc1F` [Example 288, (S)-1-(2-fluoro-4-(1H-pyrazolo[3,4-b]pyridin-4-yl)phenoxy)-2,4-dimethylpentan-2-amine] is 0.9 nM; for `CC(C)C[C@](C)(N)COc1ccc(-c2ccnc3c2cnn3C)cc1F` [Example 289, (5)-1-(2-fluoro-4-(1-methyl-1H-pyrazolo[3,4-b]pyridin-4-yl)phenoxy)-2,4-dimethylpentan-2-amine] it is 58 nM; for `Cc1nc2c(-c3ccc(OC[C@@](C)(N)CC(C)C)c(C(F)(F)F)c3)ccnc2[nH]1` [Example 291, (S)-2,4-dimethyl-1-(4-(2-methyl-3H-imidazo[4,5-b]pyridin-7-yl)-2-(trifluoromethyl)phenoxy)pentan-2-amine] it is 34 nM.
The figure for `CC(C)C[C@](C)(N)COc1ccc(-c2ccnc3[nH]ncc23)cc1C(F)(F)F` [Example 292, (S)-1-(4-(1H-pyrazolo[3,4-b]pyridin-4-yl)-2-(trifluoromethyl)phenoxy)-2,4-dimethylpentan-2-amine] is 0.4 nM; for `Cc1nc2c(-c3ccc(OC[C@@](C)(N)CC(C)C)c(C#N)c3)ccnc2[nH]1` [Example 293, (S)-2-((2-amino-2,4-dimethylpentyl)oxy)-5-(2-methyl-3H-imidazo[4,5-b]pyridin-7-yl)benzonitrile] it is 14 nM.
Then `Cc1nc2c(-c3ccc(OC[C@@](C)(N)CC(C)C)c(C)c3)ccnc2[nH]1` [Example 294, (S)-2,4-dimethyl-1-(2-methyl-4-(2-methyl-3H-imidazo[4,5-b]pyridin-7-yl)phenoxy)pentan-2-amine], with 120 nM.
On to `COCc1nc2c(-c3ccc(OC[C@@](C)(N)CC(C)C)c(C(F)(F)F)c3)ccnc2[nH]1` [Example 295, (S)-1-(4-(2-(methoxymethyl)-3H-imidazo[4,5-b]pyridin-7-yl)-2-(trifluoromethyl)phenoxy)-2,4-dimethylpentan-2-amine], for which the IC50 amounted to 22 nM.
Then `COCc1nc2c(-c3ccc(OC[C@@](C)(N)CC(C)C)c(C)c3)ccnc2[nH]1` [Example 296, (S)-1-(4-(2-(methoxymethyl)-3H-imidazo[4,5-b]pyridin-7-yl)-2-methylphenoxy)-2,4-dimethylpentan-2-amine], with 132 nM.
Then `CC(C)C[C@](C)(N)COc1ccc(-c2ccnc3c2CC(=O)N3)cc1C#N` [Example 302, (S)-2-((2-amino-2,4-dimethylpentyl)oxy)-5-(2-oxo-2,3-dihydro-1H-pyrrolo[2,3-b]pyridin-4-yl)benzonitrile], with 5.3 nM; and `CC(C)C[C@](C)(N)COc1ccc(-c2ccnc3c2CC(=O)N3)cc1C(F)(F)F` [Example 303, (S)-4-(4-((2-amino-2,4-dimethylpentyl)oxy)-3-(trifluoromethyl)phenyl)-1H-pyrrolo[2,3-b]pyridin-2(3H)-one], with 0.6 nM; and `Cc1nccc(-c2ccc(OCC(C)(C)N)c(C)n2)n1` [Example 321, 2-methyl-1-((2-methyl-6-(2-methylpyrimidin-4-yl)pyridin-3-yl)oxy)propan-2-amine], with 162 nM.
Then `CC(C)C[C@](C)(N)COc1ccc(-c2ccnc3ccnn23)nc1C(F)F` [Example 322, (S)-1-((2-(difluoromethyl)-6-(pyrazolo[1,5-a]pyrimidin-7-yl)pyridin-3-yl)oxy)-2,4-dimethylpentan-2-amine], with 0.4 nM; and `CC(C)C[C@](C)(N)COc1ccc(-c2cnn3cccnc23)cc1Cl` [Example 332], with 94 nM; and `Cc1cc(-c2cnn3cccnc23)ccc1OC[C@@](C)(N)CC(C)C` [Example 333], with 99 nM.
In the case of `CC(C)C[C@](C)(N)COc1ccc(-c2ccnc(NC3CCC(F)C3)c2)cc1Cl` (stereo partly drawn) [Example 334, 4-(4-(((S)-2-amino-2,4-dimethylpentyl)oxy)-3-chlorophenyl)-N-(3-fluorocyclopentyl)pyridin-2-amine], the IC50 stood at 15 nM.
The figure for `CC(C)C[C@](C)(N)COc1ccc(-c2ccnc3cc(C(F)(F)F)nn23)cc1F` [Example 335, (S)-1-(2-fluoro-4-(2-(trifluoromethyl)pyrazolo[1,5-a]pyrimidin-7-yl)phenoxy)-2,4-dimethylpentan-2-amine] is 262 nM; for `CC(C)C[C@](C)(N)COc1ccc(-c2ccnc3cc(C(F)(F)F)nn23)cc1Cl` [Example 336, (S)-1-(2-chloro-4-(2-(trifluoromethyl)pyrazolo[1,5-a]pyrimidin-7-yl)phenoxy)-2,4-dimethylpentan-2-amine] it is 15 nM.
The figure for `CC(C)C[C@](C)(N)COc1ccc(-c2ccnc3ccnn23)c2scnc12` [Example 341, (S)-2,4-dimethyl-1-((7-(pyrazolo[1,5-a]pyrimidin-7-yl)benzo[d]thiazol-4-yl)oxy)pentan-2-amine] is 212 nM; for `Cc1nccc(-c2ccc(OC[C@@](C)(N)CC(C)C)c3ncsc23)n1` [Example 342, (S)-2,4-dimethyl-1-((7-(2-methylpyrimidin-4-yl)benzo[d]thiazol-4-yl)oxy)pentan-2-amine] it is 39 nM; for `CC(C)C[C@](C)(N)COc1ccc(-c2ccnc(NC3CCOC3)c2)cc1Cl` (stereo partly drawn) [Example 345, 4-(4-(((S)-2-amino-2,4-dimethylpentyl)oxy)-3-chlorophenyl)-N-(tetrahydrofuran-3-yl)pyridin-2-amine] it is 5.2 nM.
The figure for `Cc1cc(-c2ccnc(NC3CCOC3)c2)ccc1OC[C@@](C)(N)CC(C)C` (stereo partly drawn) [Example 346, 4-(4-(((S)-2-amino-2,4-dimethylpentyl)oxy)-3-methylphenyl)-N-(tetrahydrofuran-3-yl)pyridin-2-amine] is 23 nM; for `Cc1nccc(-c2cnc(OCC3(N)CCC3)c(C)c2)n1` [Example 347, 1-(((3-methyl-5-(2-methylpyrimidin-4-yl)pyridin-2-yl)oxy)methyl)cyclobutanamine] it is 964 nM.
For `CC(C)C[C@](C)(N)COc1ccc(-c2ccnc3ccnn23)cc1C(F)F` [Example 351, (S)-1-(2-(difluoromethyl)-4-(pyrazolo[1,5-a]pyrimidin-7-yl)phenoxy)-2,4-dimethylpentan-2-amine], the half-inhibitory concentration (IC50) was 0.4 nM.
As to `CC(C)C[C@](C)(N)COc1ccc(-c2ccnc3ccnn23)cc1CF` [Example 353, (S)-1-(2-(fluoromethyl)-4-(pyrazolo[1,5-a]pyrimidin-7-yl)phenoxy)-2,4-dimethylpentan-2-amine], the IC50 came out at 0.2 nM.
The figure for `CC(C)C[C@](C)(N)COc1ccc(-c2cc(NC3CCCOC3)ncn2)cc1C(F)(F)F` (stereo partly drawn) [Example 358, 6-(4-(((S)-2-amino-2,4-dimethylpentyl)oxy)-3-(trifluoromethyl)phenyl)-N-(tetrahydro-2H-pyran-3-yl)pyrimidin-4-amine] is 385 nM.
Then `CC(C)C[C@](C)(N)COc1ccc(-c2ncnc3[nH]ccc23)cc1Cl` [Example 361, (S)-1-(2-chloro-4-(7H-pyrrolo[2,3-d]pyrimidin-4-yl)phenoxy)-2,4-dimethylpentan-2-amine], with 1.7 nM.
`CC(C)C[C@](C)(N)COc1ccc(-c2ncnc3[nH]ccc23)cc1C#N` [Example 362, (S)-2-((2-amino-2,4-dimethylpentyl)oxy)-5-(7H-pyrrolo[2,3-d]pyrimidin-4-yl)benzonitrile]: the half-maximal inhibitory concentration (IC50) came to 1 nM.
Regarding `CC(C)C[C@](C)(N)COc1ccc(-c2ncnc3[nH]ccc23)cc1C(F)(F)F` [Example 363, (S)-1-(4-(7H-pyrrolo[2,3-d]pyrimidin-4-yl)-2-(trifluoromethyl)phenoxy)-2,4-dimethylpentan-2-amine], the IC50 was determined as 0.4 nM.
With `CC(C)C[C@](C)(N)COc1ccc(-c2ncnc3c2ccn3C)cc1C#N` [Example 364, (S)-2-((2-amino-2,4-dimethylpentyl)oxy)-5-(7-methyl-7H-pyrrolo[2,3-d]pyrimidin-4-yl)benzonitrile], the IC50 came out at 24 nM.
Then `CC(C)C[C@](C)(N)COc1ccc(-c2ncnc3c2ccn3C)cc1F` [Example 365, (S)-1-(2-fluoro-4-(7-methyl-7H-pyrrolo [2,3-d]pyrimidin-4-yl)phenoxy)-2,4-dimethylpentan-2-amine], with 98 nM; and `CC(C)C[C@](C)(N)COc1ccc(-c2ncnc3c2ccn3C)cc1C(F)(F)F` [Example 366, (S)-2,4-dimethyl-1-(4-(7-methyl-7H-pyrrolo[2,3-d]pyrimidin-4-yl)-2-(trifluoromethyl)phenoxy)pentan-2-amine], with 60 nM.
Then `Cc1cc(-c2ccnc(Nc3nccs3)n2)ccc1OC[C@@](C)(N)CC(C)C` [Example 368, (S)—N-(4-(4-((2-amino-2,4-dimethylpentyl)oxy)-3-methylphenyl)pyrimidin-2-yl)thiazol-2-amine], with 0.3 nM.
Then `Cc1cc(-c2ccnc(NC3CC3)n2)ccc1OC[C@@](C)(N)CC(C)C` [Example 369, (S)-4-(4-((2-amino-2,4-dimethylpentyl)oxy)-3-methylphenyl)-N-cyclopropylpyrimidin-2-amine], with 1.7 nM.
